These are literature values, as cited in patent US11261215B2, “Somatostatin prodrugs” (YISSUM RESEARCH DEVELOPMENT COMPANY OF THE HEBREW …, priority 2017, dated 2022).

Numbered stars: 1 amine (or outer) side, 2 acyl side, 3 side chain; on linkers, the order of the positions; unused ones are H or OH. Bridge positions count the residues as written; N and C are the ends. Square brackets hold non-standard residues; d marks the D form. Ends that are not written are not given here. PheC3 = Phe building unit, N-alpha-omega-functionalized derivative for backbone cyclization; N(2-aminoethyl)Phe = O=C([C@H](Cc1ccccc1)N(CCN[*:3])[*:1])[*:2]; dNMeW = CN[C@H](Cc1c[nH]c2ccccc12)C(=O)O; NMeF = CN[C@@H](Cc1ccccc1)C(=O)O; NMeK = CN[C@@H](CCCCN)C(=O)O

The conditions of data set [1]: rats, oral administration; cited from earlier work.
The next data set addresses SSTR5 (Homo sapiens, UniProt P35346). The following applies: cited from earlier work.
In data set [2] the test system is amylase and lipase release from the pancreas. The following applies: in vivo; cited from earlier work.
The next data set concerns somatostatin receptors. The following applies: cited from earlier work.
Data set [3] relates to GH, glucagon and insulin secretion. The settings on record: cited from earlier work.

Sequence of SSTR5 (P35346 whole entry, species assumed): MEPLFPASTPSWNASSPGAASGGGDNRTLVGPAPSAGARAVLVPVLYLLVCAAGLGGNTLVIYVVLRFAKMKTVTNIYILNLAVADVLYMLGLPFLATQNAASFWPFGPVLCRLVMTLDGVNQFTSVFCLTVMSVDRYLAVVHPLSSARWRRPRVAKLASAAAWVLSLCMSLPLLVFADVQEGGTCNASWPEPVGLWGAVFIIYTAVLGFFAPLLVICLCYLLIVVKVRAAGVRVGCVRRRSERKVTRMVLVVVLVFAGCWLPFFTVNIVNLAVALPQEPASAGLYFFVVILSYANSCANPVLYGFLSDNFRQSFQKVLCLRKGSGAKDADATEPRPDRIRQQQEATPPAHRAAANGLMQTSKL

Consider “c(PF(NMe)w(NMe)KT(NMe)F) (cyclo(PF[dNMeW][NMeK]T[NMeF]); SMILES C[C@@H](O)[C@@H]1NC(=O)[C@H](CCCCN)N(C)C(=O)[C@@H](Cc2c[nH]c3ccccc23)N(C)C(=O)[C@H](Cc2ccccc2)NC(=O)[C@@H]2CCCN2C(=O)[C@H](Cc2ccccc2)N(C)C1=O) [Somato8]”, for which, in data set [1], the “calculated absolute oral bioavailability” value is recorded as about 10%.
Turning to “PheN2-Tyr-DTrp-Lys-Val-PheC3-Thr-NH2 ([N(2-aminoethyl)Phe]Y[dW]KV[PheC3]T-NH2; bridge 1-6; not fully specified (bridges); printed as PheN2-Tyr-DTrp-Lys-Val-PheC3-Thr-NH2) [PTR-3046]”, the IC50 result in the data set with SSTR5 is reported as “nanomolar range”. In data set [2], the “bombesin- and caerulein-induced amylase and lipase release from the pancreas” value is listed as “inhibits”. Also, in the data set with somatostatin receptors, the “selectivity toward the somatostatin receptors” value is listed as “selective toward the SSTR5”. Also, the “GH or glucagon release” value in data set [3] (in vivo) is “without inhibiting”.
With “GABA-Phe-Trp-DTrp-Lys-Thr-Phe-GlyC3-NH2 (XFWWKTFG; not fully specified; GABA, backbone cyclized, C-terminal amide; MOD_RES (1)..(1) 4Abu, GABA; MOD_RES (1)..(8) backbone-to-end cyclization between the N-alpha-omega-functionalized derivative of GlyC3 and the N-terminus; MOD_RES (4)..(4) D-Trp; MOD_RES (8)..(8) AMIDATION; MOD_RES (8)..(8) GlyC3 building unit) [PTR-3173]”, the “selectivity toward the somatostatin receptors” value with somatostatin receptors was “selective towards the SSTR2, SSTR4 and SSTR5”. Further, in data set [3] (at physiological concentrations), the “effect on insulin secretion” value is “no effect”. Further, in data set [3] (in vivo), the “GH:insulin potency ratio” value is given as > 10,000 and the “potency in the in vivo inhibition of GH relative to that of glucagon” value is 1000 fold.
As to “PheC3-Cys-Phe-DTrp-Lys-Thr-Cys-Phe-PheN3-X (FCFWKTCFF; not fully specified; backbone cyclized; MOD_RES (1)..(1) PheC3 building unit; MOD_RES (1)..(9) backbone cyclization between the N-alpha-omega- functionalized derivative of X1 and the N-alpha-omega- functionalized derivative of X9; DISULFID (2)..(7) bridge; MOD_RES (4)..(4) D-Trp; MOD_RES (9)..(9) PheN3 building unit; MOD_RES (9)..(9) AMIDATION) [PTR-3205]”, the “selectivity toward the somatostatin receptors” value in the data set on somatostatin receptors is on record as “selective towards SSTR2”.
